Assay results published in patent EP4049726A1, “IMIDAZO[1,2-A]PYRAZINES AS INHIBITORS OF HASPIN AND THERAPEUTIC USES THEREOF” (Fundación del Sector Público Estatal Centro Nacional de …, priority 2021, dated 2022).

target: T1, HASPIN (Homo sapiens, UniProt Q8TF76); test: HASPIN biochemical assay (ADP-Glo, HASPIN autophosphorylation); details: ATP 150 µM, 60 min at 30 °C
T1 sequence (Q8TF76 1-798): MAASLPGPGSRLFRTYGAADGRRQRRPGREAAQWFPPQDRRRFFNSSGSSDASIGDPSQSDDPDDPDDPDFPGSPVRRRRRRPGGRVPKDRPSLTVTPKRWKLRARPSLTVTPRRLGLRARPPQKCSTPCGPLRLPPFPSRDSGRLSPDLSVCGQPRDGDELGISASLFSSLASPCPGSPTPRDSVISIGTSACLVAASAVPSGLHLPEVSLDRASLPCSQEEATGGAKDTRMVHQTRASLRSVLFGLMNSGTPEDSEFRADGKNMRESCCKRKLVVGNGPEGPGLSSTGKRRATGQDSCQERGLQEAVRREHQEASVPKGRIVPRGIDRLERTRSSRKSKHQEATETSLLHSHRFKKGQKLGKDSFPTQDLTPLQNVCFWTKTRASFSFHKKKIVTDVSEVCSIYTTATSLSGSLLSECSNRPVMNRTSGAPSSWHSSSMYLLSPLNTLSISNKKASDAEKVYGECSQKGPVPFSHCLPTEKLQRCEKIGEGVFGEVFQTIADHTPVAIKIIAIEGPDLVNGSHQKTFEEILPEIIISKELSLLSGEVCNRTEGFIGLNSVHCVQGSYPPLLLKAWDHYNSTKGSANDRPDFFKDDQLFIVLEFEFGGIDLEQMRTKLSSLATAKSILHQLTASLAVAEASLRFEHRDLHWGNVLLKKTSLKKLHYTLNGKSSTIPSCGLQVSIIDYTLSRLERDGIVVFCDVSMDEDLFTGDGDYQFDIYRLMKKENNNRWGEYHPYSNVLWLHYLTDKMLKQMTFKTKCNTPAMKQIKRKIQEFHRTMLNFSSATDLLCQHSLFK
Method: HASPIN biochemical Assay: The biochemical assay to measure HASPIN activity relies on the ADP-Glo™ assay kit (Promega) that determines the amount of ADP as direct product of the kinase enzyme activity. Assay conditions were as indicated by the kit manufacturers with the following adaptations for the kinase activity step: Kinase assay buffer and assay volume (15 mM HEPES pH 7.5, 20 mM NaCl, 1 mM EGTA, 0.02% TWEEN 20, 10 mM MgCl2, 0.1 mg/mL BGG)/25 µL assay volume). Incubation time and temperature: 60 min at 30 °C. HASPIN final concentration: 0.9 µg/mL. ATP final concentration: 150 µM. HASPIN autophosphorylation was measured. Assays were performed in 384-well plates. The final outcome of the coupled reactions provided by the kit is the release of […] and has been measured with a multilabel HTS counter Victor V / Envision. Values were normalized against the control activity included (100% HASPIN activity, without compound). Values were plotted against the inhibitor concentration and fit to a sigmoid dose-response curve using Activity base by IDBS software.

| IC50 | SMILES |
| --- | --- |
| 94.8 nM | CNC(=O)c1nc2c(NCC3CCNCC3)nc(-c3ccncc3F)cn2c1C [Compound 35, 6-(3-Fluoro-pyridin-4-yl)-3-methyl-8-[(piperidin-4-ylmethyl)-amino]-imidazo[1,2-a]pyrazine-2-carboxylic acid methylamide] |
| 6.59 nM | N#CC1(CNc2nc(-c3ccncc3F)cn3cc(C(N)=O)nc23)CCNCC1 [Compound 29, 8-[(4-Cyano-piperidin-4-ylmethyl)-amino]-6-(3-fluoro-pyridin-4-yl)-imidazo[1,2-a]pyrazine-2-carboxylic acid amide] |
| 46.8 nM | NC(=O)c1cn2cc(-c3ccncc3)nc(NCC3(O)CCNCC3)c2n1 [Compound 44, 8-[(4-Hydroxy-piperidin-4-ylmethyl)-amino]-6-pyridin-4-yl-imidazo[1,2-a]pyrazine-2-carboxylic acid amide] |
| 59.6 nM | N#CC1(CNc2nc(-c3ccnc(Cl)c3)cn3cc(C(N)=O)nc23)CCNCC1 [Compound 6, 6-(2-Chloro-pyridin-4-yl)-8-[(4-cyano-piperidin-4-ylmethyl)-amino]-imidazo[1,2-a]pyrazine-2-carboxylic acid amide] |
| 25.9 nM | NC(=O)c1cn2cc(-c3ccncc3)nc(NCC3(F)CCNCC3)c2n1 [Compound 15, 8-[(4-Fluoro-piperidin-4-ylmethyl)-amino]-6-pyridin-4-yl-imidazo[1,2-a]pyrazine-2-carboxylic acid amide] |
| 140 nM | NC(=O)c1cn2cc(-c3ccncc3)nc(N[C@H]3CC[C@@H](N)CC3)c2n1 [Compound 39, 8-(cis-4-Amino-cyclohexylamino)-6-pyridin-4-yl-imidazo[1,2-a]pyrazine-2-carboxylic acid amide] |
| 189 nM | CNC(=O)c1cn2cc(-c3ccncc3Cl)nc(NCC3CCNCC3)c2n1 [Compound 31, 6-(3-Chloro-pyridin-4-yl)-8-[(piperidin-4-ylmethyl)-amino]-imidazo[1,2-a]pyrazine-2-carboxylic acid methylamide] |
| 34.5 nM | NC(=O)c1cn2cc(-c3ccnc(N)c3)nc(NCC3(F)CCNCC3)c2n1 [Compound 41, 6-(2-Amino-pyridin-4-yl)-8-[(4-fluoro-piperidin-4-ylmethyl)-amino]-imidazo[1,2-a]pyrazine-2-carboxylic acid amide] |
| 45.7 nM | Cc1c(C(N)=O)nc2c(NCC3(C#N)CCNCC3)nc(-c3ccncc3)cn12 [Compound 19, 8-[(4-Cyano-piperidin-4-ylmethyl)-amino]-3-methyl-6-pyridin-4-yl-imidazo[1,2-a]pyrazine-2-carboxylic acid amide] |
| 111 nM | Cc1c(C(N)=O)nc2c(NCC3(C#N)CCNCC3)nc(-c3ccnc(Cl)c3)cn12 [Compound 24, 6-(2-Chloro-pyridin-4-yl)-8-[(4-cyano-piperidin-4-ylmethyl)-amino]-3-methyl-imidazo[1,2-a]pyrazine-2-carboxylic acid amide] |
| 157 nM | Cc1c(C(N)=O)nc2c(NCC3(F)CCNCC3)nc(-c3ccnc(Cl)c3)cn12 [Compound 25, 6-(2-Chloro-pyridin-4-yl)-8-[(4-fluoro-piperidin-4-ylmethyl)-amino]-3-methyl-imidazo[1,2-a]pyrazine-2-carboxylic acid amide] |
| 229 nM | COCCNC(=O)c1cn2cc(-c3ccncc3)nc(NCC3CCNCC3)c2n1 [Compound 5, 8-[(Piperidin-4-ylmethyl)-amino]-6-pyridin-4-yl-imidazo[1,2-a]pyrazine-2-carboxylic acid (2-methoxy-ethyl)-amide] |
| 19.5 nM | CNC(=O)c1cn2cc(-c3ccncc3F)nc(NCC3CCNCC3)c2n1 [Compound 28, 6-(3-Fluoro-pyridin-4-yl)-8-[(piperidin-4-ylmethyl)-amino]-imidazo[1,2-a]pyrazine-2-carboxylic acid methylamide] |
| 78 nM | CNC(=O)c1nc2c(NCC3(F)CCNCC3)nc(-c3ccncc3)cn2c1C [Compound 14, 8-[(4-Fluoro-piperidin-4-ylmethyl)-amino]-3-methyl-6-pyridin-4-yl-imidazo[1,2-a]pyrazine-2-carboxylic acid methylamide] |
| 60 nM | CNC(=O)c1nc2c(NCC3CCNCC3)nc(-c3ccncc3)cn2c1C [Compound 7, 3-Methyl-8-[(piperidin-4-ylmethyl)-amino]-6-pyridin-4-yl-imidazo[1,2-a]pyrazine-2-carboxylic acid methylamide] |
| 253 nM | Cc1c(C(N)=O)nc2c(NCC3CCNCC3)nc(-c3ccnc(Cl)c3)cn12 [Compound 12, 6-(2-Chloro-pyridin-4-yl)-3-methyl-8-[(piperidin-4-ylmethyl)-amino]-imidazo[1,2-a]pyrazine-2-carboxylic acid amide] |
| 180 nM | Cc1c(C(N)=O)nc2c(NCC3CCNCC3)nc(-c3ccncc3)cn12 [Compound 9, 3-Methyl-8-[(piperidin-4-ylmethyl)-amino]-6-pyridin-4-yl-imidazo[1,2-a]pyrazine-2-carboxylic acid amide] |
| 187 nM | NC(=O)c1cn2cc(-c3ccncc3Cl)nc(NCC3CCNCC3)c2n1 [Compound 30, 6-(3-Chloro-pyridin-4-yl)-8-[(piperidin-4-ylmethyl)-amino]-imidazo[1,2-a]pyrazine-2-carboxylic acid amide] |
| 18.2 nM | CNC(=O)c1nc2c(NCC3(C#N)CCNCC3)nc(-c3ccncc3)cn2c1C [Compound 17, 8-[(4-Cyano-piperidin-4-ylmethyl)-amino]-3-methyl-6-pyridin-4-yl-imidazo[1,2-a]pyrazine-2-carboxylic acid methylamide] |
| 65 nM | CNC(=O)c1nc2c(NCC3CCNCC3)nc(-c3ccnc(Cl)c3)cn2c1C [Compound 11, 6-(2-Chloro-pyridin-4-yl)-3-methyl-8-[(piperidin-4-ylmethyl)-amino]-imidazo[1,2-a]pyrazine-2-carboxylic acid methylamide] |
| 30 nM | NC(=O)c1cn2cc(-c3ccncc3)nc(NCC3CCNCC3)c2n1 [Compound 2, 8-[(Piperidin-4-ylmethyl)-amino]-6-pyridin-4-yl-imidazo[1,2-a]pyrazine-2-carboxylic acid amide] |
| 138 nM | COCCNC(=O)c1nc2c(NCC3(C#N)CCNCC3)nc(-c3ccncc3)cn2c1C [Compound 18, 8-[(4-Cyano-piperidin-4-ylmethyl)-amino]-3-methyl-6-pyridin-4-yl-imidazo[1,2-a]pyrazine-2-carboxylic acid (2-methoxy-ethyl)-amide] |
| 85.6 nM | NC(=O)c1cn2cc(-c3ccns3)nc(NCC3(F)CCNCC3)c2n1 [Compound 46, 8-[(4-Fluoro-piperidin-4-ylmethyl)-amino]-6-isothiazol-5-yl-imidazo[1,2-a]pyrazine-2-carboxylic acid amide] |
| 78.8 nM | CNC(=O)c1nc2c(NCC3(F)CCNCC3)nc(-c3ccnc(Cl)c3)cn2c1C [Compound 20, 6-(2-Chloro-pyridin-4-yl)-8-[(4-fluoro-piperidin-4-ylmethyl)-amino]-3-methyl-imidazo[1,2-a]pyrazine-2-carboxylic acid methylamide] |
| 151 nM | CNC(=O)c1nc2c(NCC3(C#N)CCNCC3)nc(-c3ccnc(Cl)c3)cn2c1C [Compound 21, 6-(2-Chloro-pyridin-4-yl)-8-[(4-cyano-piperidin-4-ylmethyl)-amino]-3-methyl-imidazo[1,2-a]pyrazine-2-carboxylic acid methylamide] |
| 96 nM | Cc1c(C(N)=O)nc2c(NCC3(F)CCNCC3)nc(-c3ccncc3)cn12 [Compound 16, 8-[(4-Fluoro-piperidin-4-ylmethyl)-amino]-3-methyl-6-pyridin-4-yl-imidazo[1,2-a]pyrazine-2-carboxylic acid amide] |
